Source: patent US20100112617A1, “Evaluating RTK Target Drugs” (Apocell, Inc, priority 2007, published 2010)

Tests used:
Assay type in all cases: cell-based
[1] = biological target: T1, EGFR (Homo sapiens, UniProt P00533); assay: pEGFR and tEGFR levels in EGF-stimulated HT-29 colon cancer cells by laser scanning cytometry; conditions: HT-29 cells; for pEGFR fold change in level / pEGFR/tEGFR fold change in level / tEGFR fold change in level: 0% FCS, EGF 100 ng/ml for 5 min
T1 construct: host or cells: HT-29 colon cancer cells
Description: We sought to test RTK response to RTKI's and thus measured both phospho-RTK and total RTK using a known RTKI challenge reagent. AEE788 (NOVARTIS®) is an oral multiple-receptor tyrosine kinase inhibitor of EGFR, human epidermal growth factor receptor 2 (HER-2), and vascular endothelial growth factor receptor (VEGFR). Thus, we measured EGFR response to AEE788 using antibody quantitation of the two parameters. HT-29 colon cancer cells were treated with increasing doses of AEE788, (0, 4, 20, 100, and 1000 nM) for 4 hours in serum-free media followed by EGF stimulation at 100 ng/ml for 5 minutes. Cells were then fixed and stained with anti-phospho-EGFR (P-EGFR-Y1173) antibody followed by a secondary antibody conjugated with a fluorescent probe. The mean fluorescence index (MFI) of pEGFR was quantified by laser scanning cytometry (LSC) […] and the results are shown in Table 2.

[2] = biological target: T2, PDGFR-β (Homo sapiens, UniProt P09619); assay: pPDGFR-β/tPDGFR-β ratio in PDGF-stimulated HUVEC cells; parameters: endogenous in cells; host or cells: HUVEC; conditions: for HUVEC pPDGFR-β/tPDGFR-β fold ratio change: PDGF 50 ng/ml 10 min
Excerpt: (§1) Thus, we repeated the experiment using additional RTKs and RTKIs. We used a known RTKI challenge reagent SU11248, which blocks phosphorylation of several kinases, including VEGFR2 (KDR), stem cell tyrosine kinase receptor (KIT), platelet-derived growth factor receptor (PDGFR), and fms-related tyrosine kinase 3 (FLT3).

[3] = biological target: T2, PDGFR-β; assay: pPDGFR-β/tPDGFR-β ratio in PDGF-stimulated GIST cells; parameters: endogenous in cells; host or cells: GIST (gastrointestinal stromal tumor) cells; conditions: for GIST pPDGFR-β/tPDGFR-β fold ratio change: PDGF 50 ng/ml 10 min
Excerpt: as §1

T2 sequence (P09619 33-1106): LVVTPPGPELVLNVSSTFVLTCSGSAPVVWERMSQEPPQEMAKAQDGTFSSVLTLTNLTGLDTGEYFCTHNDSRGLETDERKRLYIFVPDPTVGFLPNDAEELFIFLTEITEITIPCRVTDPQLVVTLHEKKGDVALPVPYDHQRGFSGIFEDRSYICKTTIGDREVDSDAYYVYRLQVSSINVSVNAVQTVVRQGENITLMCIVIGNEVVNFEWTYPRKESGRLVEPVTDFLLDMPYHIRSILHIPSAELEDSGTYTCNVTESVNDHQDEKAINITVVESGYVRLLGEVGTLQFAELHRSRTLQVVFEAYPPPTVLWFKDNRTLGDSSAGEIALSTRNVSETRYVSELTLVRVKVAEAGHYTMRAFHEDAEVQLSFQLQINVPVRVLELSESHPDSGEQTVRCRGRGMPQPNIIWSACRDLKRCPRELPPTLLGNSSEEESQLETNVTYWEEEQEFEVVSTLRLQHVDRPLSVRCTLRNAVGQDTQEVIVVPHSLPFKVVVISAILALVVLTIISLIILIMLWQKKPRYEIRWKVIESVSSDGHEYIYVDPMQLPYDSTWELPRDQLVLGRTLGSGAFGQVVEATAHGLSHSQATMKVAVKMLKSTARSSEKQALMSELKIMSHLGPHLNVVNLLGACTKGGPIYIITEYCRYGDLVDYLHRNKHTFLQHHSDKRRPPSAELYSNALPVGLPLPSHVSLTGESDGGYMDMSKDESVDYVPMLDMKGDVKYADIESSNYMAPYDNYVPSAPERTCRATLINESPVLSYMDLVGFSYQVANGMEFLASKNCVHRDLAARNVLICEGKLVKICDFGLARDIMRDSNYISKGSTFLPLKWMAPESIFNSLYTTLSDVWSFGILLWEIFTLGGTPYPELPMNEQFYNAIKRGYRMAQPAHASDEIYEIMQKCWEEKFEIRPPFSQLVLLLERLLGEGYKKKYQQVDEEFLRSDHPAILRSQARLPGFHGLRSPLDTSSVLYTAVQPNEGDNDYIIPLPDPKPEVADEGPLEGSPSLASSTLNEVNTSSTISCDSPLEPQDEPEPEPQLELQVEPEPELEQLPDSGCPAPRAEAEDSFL
T1 sequence (P00533 25-1210): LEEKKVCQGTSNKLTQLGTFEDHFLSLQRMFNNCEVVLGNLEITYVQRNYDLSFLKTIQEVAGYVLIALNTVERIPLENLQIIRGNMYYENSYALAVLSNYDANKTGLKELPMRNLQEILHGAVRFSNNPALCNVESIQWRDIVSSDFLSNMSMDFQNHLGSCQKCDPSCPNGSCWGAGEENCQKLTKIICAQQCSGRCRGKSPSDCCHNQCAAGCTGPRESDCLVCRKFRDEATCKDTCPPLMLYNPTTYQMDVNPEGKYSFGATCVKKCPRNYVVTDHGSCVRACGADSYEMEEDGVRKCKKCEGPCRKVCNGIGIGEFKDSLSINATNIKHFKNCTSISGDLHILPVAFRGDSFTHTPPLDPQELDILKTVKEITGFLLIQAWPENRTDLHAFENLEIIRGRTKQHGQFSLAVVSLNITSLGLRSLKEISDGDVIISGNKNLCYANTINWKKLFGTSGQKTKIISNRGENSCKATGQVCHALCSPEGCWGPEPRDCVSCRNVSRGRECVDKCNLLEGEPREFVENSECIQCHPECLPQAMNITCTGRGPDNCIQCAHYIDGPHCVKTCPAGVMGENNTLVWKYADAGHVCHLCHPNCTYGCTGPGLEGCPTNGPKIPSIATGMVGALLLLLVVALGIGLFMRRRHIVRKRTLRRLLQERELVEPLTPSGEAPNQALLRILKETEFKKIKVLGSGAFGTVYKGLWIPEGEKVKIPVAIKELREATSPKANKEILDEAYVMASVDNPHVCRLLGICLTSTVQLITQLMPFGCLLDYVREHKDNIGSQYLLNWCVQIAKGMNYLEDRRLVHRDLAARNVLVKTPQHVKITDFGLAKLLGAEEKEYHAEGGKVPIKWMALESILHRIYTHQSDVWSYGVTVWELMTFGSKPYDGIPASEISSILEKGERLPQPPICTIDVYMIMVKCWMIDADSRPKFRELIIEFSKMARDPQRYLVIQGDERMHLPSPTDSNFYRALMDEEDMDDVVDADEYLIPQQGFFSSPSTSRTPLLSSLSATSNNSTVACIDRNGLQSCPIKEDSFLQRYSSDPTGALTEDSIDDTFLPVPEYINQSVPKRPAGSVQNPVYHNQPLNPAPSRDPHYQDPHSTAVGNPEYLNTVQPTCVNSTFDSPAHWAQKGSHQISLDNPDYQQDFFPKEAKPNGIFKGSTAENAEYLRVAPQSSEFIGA

In the case of `CCN1CCN(Cc2ccc(-c3cc4c(N[C@H](C)c5ccccc5)ncnc4[nH]3)cc2)CC1` [AEE788], the “pEGFR fold change in level” value ([1]; 4 nM for 4 h) is reported as 1.36 fold, the “pEGFR/tEGFR fold change in level” value ([1]; 4 nM for 4 h) is reported as 0.65 fold and the “tEGFR fold change in level” value ([1]; 4 nM for 4 h) is reported as 2.11 fold. For the same compound, the “pEGFR fold change in level” value ([1]; 20 nM for 4 h) was 0.97 fold, the “pEGFR/tEGFR fold change in level” value ([1]; 20 nM for 4 h) was 0.21 fold and the “tEGFR fold change in level” value ([1]; 20 nM for 4 h) was 4.61 fold. For the same compound, the “pEGFR fold change in level” value ([1]; 100 nM for 4 h) was 0.70 fold, the “pEGFR/tEGFR fold change in level” value ([1]; 100 nM for 4 h) was 0.16 fold and the “tEGFR fold change in level” value ([1]; 100 nM for 4 h) was 4.37 fold. The “pEGFR fold change in level” value ([1]; 1000 nM for 4 h) was 0.52 fold, the “pEGFR/tEGFR fold change in level” value ([1]; 1000 nM for 4 h) was 0.15 fold and the “tEGFR fold change in level” value ([1]; 1000 nM for 4 h) was 3.53 fold. For the same compound, the “EGF-induced phosphorylation of EGFR (pEGFR), in words” value ([1]; 4-1000 nM) was “inhibited EGF-induced phosphorylation of its receptor (pEGFR) in a dose-dependent manner” and the “total EGFR levels, in words” value ([1]; 4-1000 nM) was “up-regulated total EGFR levels”.

With `CCN(CC)CCNC(=O)c1c(C)[nH]c(/C=C2\C(=O)Nc3ccc(F)cc32)c1C` [SU11248] the “pPDGFR-β/tPDGFR-β ratio, in words” value [2] was “decreased in a dose-dependent manner”, the “HUVEC pPDGFR-β/tPDGFR-β fold ratio change” value ([2]; 0.01 μM) was 2.42 ± 0.36 fold and the “HUVEC pPDGFR-β/tPDGFR-β fold ratio change” value ([2]; 0.1 μM) was 1.48 ± 0.15 fold. For the same compound, the “HUVEC pPDGFR-β/tPDGFR-β fold ratio change” value ([2]; 1 μM) was 1.40 ± 0.23 fold, the “pPDGFR-β/tPDGFR-β ratio, in words” value [3] was “decreased in a dose-dependent manner” and the “GIST pPDGFR-β/tPDGFR-β fold ratio change” value ([3]; 0.01 μM) was 0.97 ± 0.05 fold. For the same compound, the “GIST pPDGFR-β/tPDGFR-β fold ratio change” value ([3]; 0.1 μM) was 0.00 ± 0.59 fold and the “GIST pPDGFR-β/tPDGFR-β fold ratio change” value ([3]; 1 μM) was 0.00 ± 0.08 fold.
